Results from patent US7604990B2, “Methods of regulating differentiation in stem cells” (ES Cell International Pte Ltd., priority 2002, dated 2009).

What was measured:
[1] = test system: sphingosine kinase (SPK) in hES cells; assay: Sphingosine kinase activity in hES cells after PDGF; type: cell-based, human; conditions: PDGF 20 ng/ml
Experimental: hES-3 cells plated without MEF for 24 hr and depleted of serum for a further 18 hr were incubated in the presence of PDGF (20 ng/ml) for various time periods and were harvested and lysed by sonication (2 W for 30 s at 4° C.) in lysis buffer containing 50 mM Tris/HCl (pH 7.4), 10% glycerol, 0.05% Triton X-100, 150 mM NaCl, 1 mM dithiothreitol, 2 mM Na3VO4, 10 mM NaF, 1 mM EDTA and protease inhibitors (Complete™, Roche, Mannheim, Germany). SPK activity was determined using D-erythro-sphingosine and […] as substrates, as previously described^19. Protein concentrations in cell homogenates were determined with Coomassie Brilliant Blue reagent (Bio-Rad, Regent Park, NSW, Australia) using bovine serum albumin as standard.

hES cells [2] = assay: GCTM-2/PCNA immunostaining cell count, dissociated hES cells without MEF and serum (Example 1); type: cell-based, human; conditions: 4 days, no MEF, no serum
Description: (A) Quantification of the number of GCTM2+ cells. (B) Quantification of the number of PCNA+/GCTM2+ cells.
In some experiments, hES-3 cells plated onto 8-well chamber slides, with or without MEF, were fixed in ethanol or paraformaldehyde (for PDGFR) the day after plating. In others, hES-3 cells were mechanically dissociated, in order to obtain a monolayer culture and then plated onto 8-well chamber slides without MEF and were fixed in ethanol 4 days after the first treatment. Immunostaining was performed using the following antibodies: anti human PDGFR-α or PDGFR-β (R&D Systems Inc.), GCTM-2, and/or PCNA (Chemicon, Boronia, VIC, Australia), TRA-1-60, Oct-4. Nuclei were evidenced by Hoechst-33342. Slides were mounted and observed by fluorescent microscopy with a Leica microscope at ×10, ×20 and ×40. Specificity was verified by the absence of any staining in the negative controls. In some experiments, cells were counted to determine the ratio of GCTM-2 positive (GCTM2+), PCNA positive (PCNA+) and GCTM2+/PCNA+ cells within the global population.

hES cells [3] = assay: GCTM-2 quantification by alkaline phosphatase activity, hES cells on MEF, serum-free (Example 1); type: cell-based, human; conditions: 8 days serum-free on MEF; S1P 10 μM, PDGF 20 ng/ml; n=7
Experimental: (A) hES cells grown with MEF, before the depletion of serum from the medium. (B, C, D, E) hES cells grown without serum after 8 days, in the absence (B) or in the presence of S1P (10 μM) (C), PDGF (20 ng/ml) (D), S1P (10 μM) plus PDGF (20 ng/ml) (E). (F) hES cells grown without serum, in the presence or in the absence (control) of S1P (10 μM), PDGF (20 ng/ml), S1P (10 μM) plus PDGF (20 ng/ml). In A-E, data are representative of at least 3 independent experiments. In F, data expressed as percentages of alkaline phosphatase activity in absence of serum for eight days (% of control), are the means±SEM of at least 2 independent experiments, each run in triplicate.
hES-3 cells plated with MEF, were fixed in ethanol and immunostained with GCTM-2 and then with an alkaline phosphatase-coupled secondary antibody (Dako). The activity of alkaline phosphatase was detected by adding a solution of 4-nitrophenyl phosphate (Roche, Mannheim, Germany), followed by reading the optical density (OD) at 405 nm. In order to validate the technique as a relevant indicator of the proportion of GCTM-2 positive cells, standard curves were done with the teratocarcinoma cell line GCT27C4, known to express GCTM-2.

SPK in MEF = assay: Sphingosine kinase activity in MEF after PDGF; type: cell-based, mouse; conditions: PDGF 20 ng/ml
[4] = test system: ERKs (Erk1 and Erk2) in hES cells; assay: ERK phosphorylation Western blot in hES cells (Example 5); type: cell-based, human
Experimental: Western blots experiments were performed using protein lysate from hES cells. (A) Cells were pre-treated or not with U0126 (30 μM, 1 hr) and incubated for 5 min in the absence (C, control) or presence of S1P (10 μM). (B) Cells were incubated for different time periods in the absence or presence of S1P (10 μM). (C) Cells were incubated for 5 min with various concentrations of S1P. The phosphorylation of Erk1 and Erk2 (P-Erk1 and P-Erk2) was assessed by immunoblotting with a polyclonal anti-active MAP kinase as described in Materials and Methods. After a stripping procedure, the same blots reprobed with a monoclonal anti-MAP kinase, allowed the detection of Erk1 and Erk2.
For immunoblot analysis, cells were transferred into 24 well plates (8 colonies per well) without MEFs, and 24 hr later, were grown in the absence of serum for 18 hrs.
In some experiments, cells were pre-treated for 1 hr with U0126 (30 μM) or for 18 hrs with PTX (100 μg/ml).
hES3 cells were lysed following removal of the supernatants by addition of a reducing loading buffer (2% SDS, 62.5 mM Tris pH 6.8, 0.1 M DTT, 0.01% bromophenol blue) containing 1 mM sodium orthovanadate. Samples were boiled for 10 min and centrifuged at 13000 g for 15 min, and protein lysates (approx. 80 μg) were separated by SDS-polyacrylamide gel electrophoresis (10% polyacrylamide, w/v). Proteins were transferred to nitrocellulose (Hybond-ECL, Amersham) and immunoblotting was carried out with rabbit polyclonal anti-active mitogen-activated protein (MAPK) antibodies raised against a dually phosphorylated MAPK peptide (Promega, Madison, Wis., USA). Peroxidase-coupled secondary antibody (Dako) was detected by exposure of autoradiographic films in the presence of a chemiluminescent detection reagent (ECL, Amersham). Stripping of antibodies was achieved by incubating the membrane during 30 min at 50° C. in a buffer containing 100 mM mercaptoethanol, 2% SDS, 62.5 mM Tris-HCl pH 6.7. The membrane was then reprobing with rabbit polyclonal anti-ERK1/2 antibodies (Promega), and then with peroxidase-coupled secondary antibodies (Dako).

hES cells [5] = assay: Direct observation of hES colonies in serum-depleted medium (Example 4); type: cell-based, human
Experimental: (A) hES cells grown with feeder, before the depletion in serum. (B) hES cells grown without serum after 8 days (B, C) and 12 days (D, E), in absence (B, D) or presence of S1P (C, E, 10 μM).
For direct observation, hES-3 cells were coated into 12-well plates (3 colonies per well), with or without mouse embryonic feeders (MEFs). The day following the plating, cells were incubated with the different agents in serum free medium containing insulin, transferring and selenium. Media was changed the 2nd day and then every 2 days.

PDGF was tested, and the “duration of SPK activity enhancement” value [1] was “at least 60 min”, the SPK activity ([1]; 30 min, value printed in brackets after 'basal values', n=3) was 75.3 ± 3.92 nmol/min/mg and the “SPK activity relative to basal values” ([1]; after 30 min of incubation) was 1.6 fold. For the same compound, the “proliferating rate of hES cells (PCNA+) versus control” value (hES cells [2]) was “no statistically significant difference”, the “cells GCTM2+” value (hES cells [2]; mechanically dissociated, S1P 10 μM, PDGF 10 ng/ml) was 53.7±13.2% and the “more GCTM2+ than the control cells (alkaline phosphatase activity)” value (hES cells [3]) was 16.6±7.0%. The “activation of SPK in MEF” value (SPK in MEF) was “did not induce a significant statistical activation of SPK”.
For `CCCCCCCCCCCCC/C=C/[C@@H](O)[C@@H](N)COP(=O)(O)O` [S1P, Sphingosine-1-phosphate], the “proliferating rate of hES cells (PCNA+) versus control” value (hES cells [2]) was “no statistically significant difference”, the “concentration dependence of ERKs stimulation” value ([4]; 5 min, various concentrations of S1P) was “concentration dependant manner” and the “duration of ERKs stimulation” value ([4]; S1P 10 μM) was “at least 60 min”. For the same compound, the “phosphorylation of ERKs” value ([4]; hES cells, 5 min, S1P 10 μM) was “stimulated the phosphorylation of ERKs”, the “growth/differentiation of hES colonies on MEFs” value (hES cells [5]; S1P 10 μM 8 days, LPA up to 50 μM 12 days) was “more compact and less differentiated” and the “effect on cell differentiation, hES cells grown without MEFs” value (hES cells [5]; without MEFs, n=3) was “inhibitory effect”.
